According to patent publication US20230043985A1, “ONCE DAILY CANCER TREATMENT REGIMEN WITH A PRMT5 INHIBITOR” (Pfizer Inc., priority 2019, published 2023):

What was measured:
[1] = Pre-clinical prediction of human in vivo plasma clearance from human liver microsomes; type: in vitro ADME; conditions: used as the predicted CL
Procedure: (§1) Briefly, in vivo plasma clearance (CL) in humans was predicted to be ˜3 and ˜0.6 mL/min/kg from human liver microsomes and hepatocytes, respectively. The conservative value of ˜3 mL/min/kg from human liver microsomes was used as the predicted CL. […] A half-life (t1/2) is predicted to be ˜6 h calculated by the equation: t1/2=0.693*Vss/CL.

[2] = Pre-clinical prediction of human in vivo plasma clearance from hepatocytes; type: in vitro ADME
Procedure: as §1

[3] = Pre-clinical projection of human Vss, half-life and peak to trough ratio (unbound Vss scaling from rats and dogs; t1/2=0.693*Vss/CL); conditions: for predicted peak to trough ratio in humans: based on ~6-hour projected half-life
Procedure: as §1
Moreover, based on the ˜6-hour projected half-life for Compound 1 the likely peak to trough ratio in humans was predicted to be lower following twice daily (BID) dosing (˜4) compared to once daily (QD) dosing (˜8 or more). Lower peak to trough ratios are generally more desirable because they may help to minimize potential Cmax-related adverse effects (if any) while maintaining the therapeutic effects.
Half-life, for instance the half-life of Compound 1, refers to the time it takes for the plasma concentration of Compound 1 to decrease by 50% as calculated by the equation: 0.693*Vss/CL where Vss is the steady-state volume of distribution and CL is plasma clearance.

[4] = Phase 1 clinical PK of Compound 1 in patients (plasma, LC-MS/MS), Study NCT03854227; type: in vivo, human
Procedure: Peak to trough ratio refers to the ratio of the maximum concentration (Cmax) to minimum concentration (Cmin) of Compound 1 observed. Relevant to the present invention is the peak to trough ration during the dosing interval at “steady state” (day 15). Blood samples for the characterization of PK profiles were collected at pre- and post-dose on Day 1 (single dose) and Day 15 (steady state), and were analyzed for Compound 1 using a validated liquid chromatography coupled with tandem mass spectrometry (LC-MS/MS) assay. The lower limit of quantitation of the assay was 0.250 ng/mL. The representative day 1 median PK profile of Compound 1 dosed at 2 mg BID is provided at FIG. 1. The representative steady state (day 15) median PK profile of Compound 1 dosed at 2 mg BID is provided at FIG. 2. Table 1 (below) depicts representative mean maximum (Cmax) and minimum (Cmin) daily concentrations of Compound 1 at “steady state” (day 15) dosed BID at 2 mg. A population pharmacokinetic (PK) model was generated based on the preliminary PK data from 6 patients received Compound 1 orally at doses up to 2 mg BID at steady state. It was observed that actual mean peak to trough ratio at steady state (here, 15 days of dosing) of Compound 1 in the NCT03854227 clinical trial was ˜2 for BID dosing, substantially lower than that previously predicted based on pre-clinical data (˜4 for BID). Furthermore, based on this population PK model, the steady state PK profiles following QD vs BID dosing (using a 16 mg total daily dose as an example) were compared using the individual PK parameters from each of these 6 patients. […] Compound 1 was provided to patients in three cohorts as tablets ((1) 1 mg tablets (for patient dosed with 4 mg QD); and 2) 1 mg and 5 mg tablets (for patients dosed with 6 mg QD and 8 mg QD)) supplied in separate labeled bottles for oral administration. Because patients were receiving 4 mg QD, 6 mg QD, and 8 mg QD, respectively, each of them were instructed to swallow whole (i.e., without crushing or chewing) 1) four 1 mg tablets (for the 4 mg QD cohort (N=3)); 2) one 5 mg tablets and one 1 mg tablet (for the 6 mg cohort (N=6)); and 3) one 5 mg tablet and three 1 mg tablets (for the 8 mg cohort (N=2)) at the same time each morning with at least 8 oz (240 mL) of water on an empty stomach. No food or liquids other than water were consumed for 2 hours before and 1 hour following each dose administration. Patients in these cohorts took Compound 1 orally QD as described above for four cycles (a cycle is 28 days). Weekly visits to the clinic were made by the patient to evaluate the anti-cancer activity and side effects of Compound 1. FIG. 5, FIG. 6, and FIG. 7 show the Day 15 steady state median concentration-time profiles for 4 mg QD, 6 mg QD, and 8 mg QD, respectively. […]

PRMT5 = target: T1, PRMT5 (Homo sapiens, UniProt O14744); test: Blood pharmacodynamic biomarker plasma SDMA inhibition (LC-MS/MS) in patients; type: in vivo
T1 construct: endogenous in cells; host or cells: tissues of the dosed subjects (in vivo); SDMA measured in plasma by LC-MS/MS
T1 sequence (O14744 whole entry): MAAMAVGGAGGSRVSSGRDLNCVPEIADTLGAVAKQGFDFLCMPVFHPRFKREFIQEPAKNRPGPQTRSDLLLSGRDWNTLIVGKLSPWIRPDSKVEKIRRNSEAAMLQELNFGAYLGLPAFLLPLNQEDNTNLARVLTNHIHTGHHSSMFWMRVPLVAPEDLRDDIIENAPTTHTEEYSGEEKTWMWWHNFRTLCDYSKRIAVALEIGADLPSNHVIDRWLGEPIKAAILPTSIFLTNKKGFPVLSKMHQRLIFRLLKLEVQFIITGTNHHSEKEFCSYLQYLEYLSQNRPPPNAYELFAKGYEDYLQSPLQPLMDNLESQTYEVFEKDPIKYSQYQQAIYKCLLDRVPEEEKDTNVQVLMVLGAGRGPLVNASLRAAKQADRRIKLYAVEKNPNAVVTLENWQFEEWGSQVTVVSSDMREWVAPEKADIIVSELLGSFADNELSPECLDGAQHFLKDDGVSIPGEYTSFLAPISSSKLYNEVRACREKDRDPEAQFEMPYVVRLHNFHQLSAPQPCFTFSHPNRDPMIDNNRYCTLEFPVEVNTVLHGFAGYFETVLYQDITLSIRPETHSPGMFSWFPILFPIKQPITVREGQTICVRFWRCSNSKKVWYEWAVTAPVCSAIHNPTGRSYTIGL
T1 sequence (Q9BQA1 whole entry partner): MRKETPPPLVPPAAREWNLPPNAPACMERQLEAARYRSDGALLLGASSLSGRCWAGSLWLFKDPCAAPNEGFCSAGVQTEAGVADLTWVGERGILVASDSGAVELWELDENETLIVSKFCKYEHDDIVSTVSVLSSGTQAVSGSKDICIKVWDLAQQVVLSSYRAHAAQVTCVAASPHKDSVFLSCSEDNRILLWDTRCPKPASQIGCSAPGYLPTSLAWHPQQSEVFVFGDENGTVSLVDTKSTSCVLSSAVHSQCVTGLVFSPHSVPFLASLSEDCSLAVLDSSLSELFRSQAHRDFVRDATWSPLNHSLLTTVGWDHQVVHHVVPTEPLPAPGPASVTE
Procedure: The plasma SDMA (Symmetrical Dimethylarginine) level was used as a pharmacodynamic biomarker (PD) to monitor the inhibition effect of Compound 1. SDMA was chosen for the blood PD biomarker because PRMT5 catalyzes the formation of SDMA in a number of nuclear and cytoplasmic proteins, and PRMT5 inhibition would result in a decrease of SDMA. The quantitative determination of SDMA was performed by using a liquid chromatography mass spectrometry (LC-MS/MS) assay which is an exceedingly sensitive and specific analytical technique that can precisely determine the identities and concentration of compounds such as SDMA within a sample. The assay had been validated from 1-500 ng/ml in plasma. […] The plasma SDMA inhibition were around 60% for the first two cohorts (N=1 in each cohort), including 0.5 mg QD and 0.5 mg BID. The plasma SDMA inhibition was around 80% from cohort 3 to cohort 9, including 1 mg BID (N=2), 2 mg BID (N=3), 4 mg BID (N=3), 6 mg BID (N=4), 4 mg QD (N=5), 6 mg QD (N=6), and 8 mg QD (N=3).

[5] = Tolerability of BID dosing scheme in Phase 1 clinical trial; type: in vivo, human; conditions: BID (twice daily) dosing scheme, patients
Description: These calculations, and in particular the half-life projection, were incorporated into the design of a Phase I clinical trial of Compound 1 [Study NCT03854227; A Phase 1 Study to Evaluate the Safety, Pharmacokinetics, and Pharmacodynamics of Escalating Doses Of [Compound 1] (PRMT Inhibitor) in Participants with Advanced or Metastatic Non-Small Cell Lung Cancer, Head And Neck Squamous Cell Carcinoma, Esophageal Cancer, Endometrial Cancer, Cervical Cancer And Bladder Cancer; first posted 26 Feb. 2019] which included BID (twice daily) dosing of 0.5 mg, 1 mg, 2 mg, 4 mg, 8 mg, 16 mg, 30 mg and 60 mg Compound 1. BID (twice daily) dosing was implemented for all doses thought to potentially be therapeutic in order to limit (i.e., lessen) the projected peak to trough ratio of Compound 1 in view of the predicted ˜6-hour half-life of Compound 1.
In this regard, it is noted that the primary indications for Compound 1 are various cancer types which are often accompanied by patients' physical and emotional difficulties in executing self-care. Moreover, many cancer indications become more prevalent with advancing age and is often accompanied by decline in memory. […]
Part 1A (dose escalation) has approximately 9 cohorts and enrolls approximately 40 participants. […] Dose limiting toxicities (DLT) were assessed at the end of Cycle 1 (28 days) to inform dose escalation and determine the MTD. […]

Compound: Cc1ncnc2c1ccn2[C@@H]1C[C@H](Oc2cc(C(F)F)c(F)c3c2CNCC3)[C@@H](O)[C@H]1O [Compound 1, (1S,2S,3S,5R)-3-((6-(difluoromethyl)-5-fluoro-1,2,3,4-tetrahydroisoquinolin-8-yl)oxy)-5-(4-methyl-7H-pyrrolo[2,3-d]pyrimidin-7-yl)cyclopentane-1,2-diol]
- predicted in vivo plasma clearance (CL) in humans [1]: ~3 mL/min/kg
- predicted in vivo plasma clearance (CL) in humans [2]: ~0.6 mL/min/kg
- predicted half-life (t1/2) in humans ([3]; calculated t1/2=0.693*Vss/CL): ~6 h
- predicted steady-state volume of distribution (Vss) in humans ([3]; mean unbound Vss scaling from rats and dogs, factoring in human plasma protein binding): 1.6 L/kg
- predicted peak to trough ratio in humans ([3]; once daily (QD) dosing): ≥ 8
- predicted peak to trough ratio in humans ([3]; twice daily (BID) dosing): ~4
- actual mean peak to trough ratio at steady state ([4]; BID dosing, doses up to 2 mg BID, 15 days of dosing, patients): ~2
- peak-to-trough ratio at steady state (median) ([4]; QD oral dosing (4 mg, 6 mg, 8 mg QD cohorts), Day 15, patients): 3.1
- Cmax at 15 day ([4]; human, plasma, 2 mg BID oral, steady state (day 15), patients, N=2, read-out: Cmax (mean maximum daily concentration)): 26.9 ng/mL
- concentration at 15 day ([4]; human, plasma, 2 mg BID oral, steady state (day 15), patients, N=2, read-out: Cmin (mean minimum daily concentration)): 14.6 ng/mL
- plasma SDMA inhibition (PRMT5; cohort 3 to cohort 9: 1, 2, 4, 6 mg BID and 4, 6, 8 mg QD): around 80%
- inhibition at 0.5 mg (PRMT5; human, first two cohorts: 0.5 mg QD and 0.5 mg BID (N=1 in each)): ~60%
- SDMA reduction over time (PRMT5; plasma, different dose levels, patients (FIG. 8)): 60-80%
- tolerability [5]: well tolerated
